# Measurements from publication PMC12724136, “Design of antibody structure-guided epitope vaccines in silico to induce potent immune responses against emerging viruses” (Journal of Virology, 2025).
# T1: S390F epitope peptide (P30 with S390F), synthetic (tilapia lake virus (TiLV), S390F (stands in the printed letters))
# T1 construct: source: synthetic peptide (solid phase, SynthBio)
# T1 peptide: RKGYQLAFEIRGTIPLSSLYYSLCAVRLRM
# T2: S1-Mut epitope peptide (S1 231–250, alanine mutant) (tilapia lake virus (TiLV))
# T2 construct: source: synthetic peptide (solid phase, SynthBio)
# T2 peptide: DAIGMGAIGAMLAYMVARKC
# T3: S3-WT epitope peptide (S3 385–400) (tilapia lake virus (TiLV))
# T3 construct: source: synthetic peptide (solid phase, SynthBio)
# T3 peptide: GYQLASEIRGTIPLSS
# T4: S1-WT epitope peptide (S1 231–250) (tilapia lake virus (TiLV))
# T4 construct: source: synthetic peptide (solid phase, SynthBio)
# T4 peptide: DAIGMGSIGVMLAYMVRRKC
# T5: S10-Mut epitope peptide (S10 55–66, alanine mutant) (tilapia lake virus (TiLV))
# T5 construct: source: synthetic peptide (solid phase, SynthBio)
# T5 peptide: NIEAGAAVALEM
# T6: S10-WT epitope peptide (S10 55–66) (tilapia lake virus (TiLV))
# T6 construct: source: synthetic peptide (solid phase, SynthBio)
# T6 peptide: NIEWGDEVDLEM
# B1: scFv1, prokaryote-expressed (pET32a-scFv1) (scFv)
# scFv: MSHRLTCAYSGFSSDIHAVWVRQAAGKGLEWIAYISDSSAYIYYSQSVRGRFTISRDNSRKQVYLQMNSLTTEDSAVYYCTREGSGFAFDYWGKGTGGGGSGGGGSGGGGSVTISATGSSNIGADLSWYLQKTGETPKLLIYKASTRSSGTPPRFSGSTSGSQYTLTISGVQAEDAGDYYCLGDHGGGALTFGGGTK
# notes: also called antibody scFv1; source: E. coli BL21, prokaryotic expression (pET32a-scFv1); freeze-dried, dissolved in PBS
# B2: scFv1, expressed in CHO cells (pcDNA3.1-scFv1) (scFv)
# scFv: B1 scFv
# notes: also called eukaryote-expressed scFv1; source: CHO cells, eukaryotic expression (pcDNA3.1-scFv1)
# Tests used:
# [1] = test system: tilapia IgM; assay: Serum antibody levels of tilapia after immunization with epitope peptides (ELISA); format: in vivo, Nile tilapia (Oreochromis niloticus); conditions: for immunogenicity (serum antibody titer) after single immunization: 20 µg peptide i.m. with Freund's adjuvant, 7-28 days; for immunogenicity (serum IgM antibody levels) after primary and booster immunization: 20 µg peptide i.m., booster after 14 days, 7-42 days
# From the text: Epitope vaccines usually need to be modified with Freund’s adjuvant (Beyotime) before immunization. Briefly, for a single immunization, the epitope peptide is mixed with an equal dose of complete Freund’s adjuvant and then administered to tilapia. For booster immunization, an equal dose of incomplete Freund’s adjuvant is fused with the epitope peptide before vaccination. For the S1, S3, and S10 epitope vaccine immunization programs, healthy Oreochromis niloticus were divided into six groups (70 fish per group) and vaccinated with 20 µg of peptide vaccine by intramuscular injection. During the 1–4 week immunization period, we collected four fish serum samples weekly for immunological analysis.
# In the immunization experiments based on the P30-designed vaccine, healthy Nile tilapia were divided into four groups (70 fish per group) and injected intramuscularly with 20 µg of peptide vaccine to complete the primary immunization. After 14 days, the same dose of vaccine was administered again to complete the booster immunization. Serum and tissue samples were collected from 4 fishes in each group weekly after the primary immunization, for a total of 6 weeks. Furthermore, a PBS control was incorporated into both immunization experiments, and the immunization process was conducted in accordance with the aforementioned methodology.
# Serum antibody levels after immunization were determined by indirect ELISA. Specifically, serum samples were diluted appropriately, coated to enzyme-labeled plates, and incubated overnight at 4°C. After being washed three times with PBST buffer, each well was incubated with mouse anti-tilapia IgM mAb (1:5,000) at 37°C for 1 h. After washing, each well was incubated with HRP-conjugated goat anti-mouse IgG (1:5,500) for an additional hour. Color development was carried out as described above.
# [2] = test system: scFv1; assay: Western blot, binding of S3 epitope peptide and mutants to GST-scFv1; set-up: species or system Nile tilapia (Oreochromis niloticus); conditions: PVDF membrane with GST-scFv1 incubated with S3 proteins 37°C 2 h; 6×His tag antibody
# Description: The PET-N-GST-scFv1 plasmid was constructed using seamless cloning technology (Vazyme), and the protein was obtained through a prokaryotic expression system. The scFv1 protein was purified using GST resin (Beyotime) and stored after lyophilization. Similarly, S3-WT, S3-MuT-^Y386^A, S3-MuT-^R393^A, S3-MuT-^L398^A, and S3-MuT were expressed in prokaryotes using the pET32a plasmid. In the Western blot experiment, after blocking, the PVDF membrane containing GST-scFv1 blots was incubated with each of the five S3 proteins at 37°C for 2 h. Subsequently, the anti-6×His tag mouse mAb was used as the primary antibody, and HRP-conjugated goat anti-mouse IgG was used as the secondary antibody. The ECL color development steps were performed as described above.
# [3] = test system: TiLV-positive IgM; assay: Indirect ELISA, affinity of synthetic peptides for TiLV-positive serum; format: binding, tilapia; conditions: peptides 0.1 to 100 μg/mL
# Description: The indirect ELISA was used to determine the affinity of synthetic peptides for the scFv1 protein and TiLV-positive serum. For the affinity detection of scFv1, the synthetic peptides were diluted at different concentrations (0.01–100 μg/mL) and coated in a microplate. After blocking, scFv1 protein (50 µg/mL) was added and incubated for 2 h at 37°C. In order to reduce the interference of non-specific binding, 50 µg/mL of BSA protein was used as a control for the analysis of binding to the antigenic peptides. Subsequently, 100 µL of 6×His-tag mouse mAb was added to each well and incubated for 1 h, followed by the addition of 100 µL of HRP-conjugated goat anti-mouse IgG for another hour. The color development and OD measurements were performed as described previously. For the affinity detection of serum, 100 µL of positive serum (1:200) was added to each well. The primary antibody was then replaced with mouse anti-tilapia IgM mAb (Frdbio), while all other steps remained unchanged.
# [4] = test system: scFv1; assay: Yeast two-hybrid assay of epitope peptides with scFv1; format: cell-based, Nile tilapia (Oreochromis niloticus); conditions: pGBKT-scFv1 bait, pGADT-peptide; Y2Hgold; 96 h
# Description: The pGBKT-scFv1 bait plasmid was transformed into Y2Hgold yeast competent cells (WEIDI) and cultured in SD-deficient medium (Beijing Zoman Biotechnology Co., Ltd.) to confirm the absence of self-activation. Subsequently, pGADT-P30, pGADT-S390F, and pGADT-G394K plasmids, along with the pGBKT-scFv1 bait plasmid, were co-transformed into Y2Hgold yeast competent cells. The cells were then cultured on LT-deficient SD and LTHA-deficient SD medium for 48–96 h to observe the expression of the reporter genes. Additionally, the pGADT-T plasmid was co-transformed with the pGBKT-53 and pGBKT-lam plasmids and cultured as positive and negative controls, respectively.
# [5] = test system: scFv1; assay: Cellular co-localization of epitope peptides with scFv1 in HEK293T cells; format: cell-based, Nile tilapia (Oreochromis niloticus); conditions: pEGFP-peptide and pCMV-DsRed-scFv1 in HEK293T, 48 h, confocal
# Description: The pEGFP-P30, S390F, and G394K plasmids, along with the pCMV-C-DsRed-scFv1 plasmid, were co-transfected into HEK293T cells and cultured for 48 h. Afterward, the cells were fixed with 4% paraformaldehyde, permeabilized, and stained with DPAI (Beyotime), which contains an anti-fluorescence quencher. The expression and co-localization of proteins in cells were observed using confocal fluorescence microscopy.
# [6] = test system: scFv1; assay: Co-immunoprecipitation of epitope peptides with scFv1 in HEK293T cells; format: cell-based, Nile tilapia (Oreochromis niloticus); conditions: for Co-IP with scFv1, His-tag system: His-tagged peptide and Flag-scFv1 co-transfected in HEK293T; for Co-IP with scFv1, GFP tag system: pEGFP-peptide and pCMV-Flag-scFv1 co-transfected in HEK293T, 48 h
# Description: Protein samples were extracted following the co-transfection of HEK293T cells with plasmids containing P30, S390F, G394K, and scFv1 for 48 h, respectively. Subsequent Co-IP assays were performed using the kit (Beyotime) in accordance with the provided protocol. In brief, TBS-washed protein A + G magnetic beads were incubated with GFP-tagged IgG2a mAb (1:3,000, Proteintech) for 1 h at room temperature. Subsequently, the samples were incubated at 4°C overnight. Following the washing of the beads with cell lysates containing protease inhibitors, protein elution was completed with SDS-PAGE loading buffer (Solarbio) for protein blotting. In the Western blot analysis, the GFP-tagged IgG2a mAb (1:3,000) and the Flag-tagged mouse mAb (1:2,000, Beyotime) were employed to identify the IP and input protein samples, respectively. Furthermore, all samples were characterized with a reference protein antibody (β-actin) as a standard control. Enzyme-labeled secondary antibodies consisted of HRP-conjugated goat anti-mouse IgG (1:4,000). The bands were visualized using the ECL Plus hypersensitive luminescent solution (Solarbio) and photographed with a chemiluminescence program. In addition, the His tag system was also used to verify the interaction between epitope peptides, such as P30 and scFv1. Plasmids encoding P30, S390F, and G394K fused with His tags and the plasmid encoding scFv1 fused with a Flag tag were co-transfected into HEK293T cells, respectively. The His-tag monoclonal antibody (1:500, Proteintech) was bound to A + G magnetic beads and used to detect the interaction, and all other operation steps were performed as described above.
# [7] = target: T1, S390F epitope peptide (P30 with S390F), …; assay: SPR; conditions: both partners purified
# [8] = target: T2, S1-Mut epitope peptide (S1 231–250, …); assay: ELISA; conditions: both partners purified
# [9] = target: T3, S3-WT epitope peptide (S3 385–400); assay: ELISA; conditions: both partners purified
# [10] = target: T4, S1-WT epitope peptide (S1 231–250); assay: ELISA; conditions: both partners purified
# [11] = target: T5, S10-Mut epitope peptide (S10 55–66, …); assay: ELISA; conditions: both partners purified
# [12] = target: T6, S10-WT epitope peptide (S10 55–66); assay: ELISA; conditions: both partners purified
molecule,measurement,setting,value
DAIGMGAIGAMLAYMVARKC [S1MuT],immunogenicity (serum antibody titer) after single immunization,[1],lower antibody stimulation level
DAIGMGSIGVMLAYMVRRKC [S1WT],immunogenicity (serum antibody titer) after single immunization,[1],robust immune responses
GAQLASEIAGTIPASS [S3MuT],immunogenicity (serum antibody titer) after single immunization,[1],lower antibody stimulation level
same,binding to GST-scFv1 by Western blot,[2],did not show the protein
NIEAGAAVALEM [S10MuT],immunogenicity (serum antibody titer) after single immunization,[1],lower antibody stimulation level
NIEWGDEVDLEM [S10WT],immunogenicity (serum antibody titer) after single immunization,[1],robust immune responses
RKGYQLASEIRGFIPLSSLYYSLCAVRLRM [T395F],affinity to TiLV-specific positive serum,[3],did not show improved affinity compared to P30
same,immunogenicity (serum IgM antibody levels) after primary and booster immunization,[1],failed to show significantly improved immunogenicity
RKGYQLASEIRGTIPLSSLYYSLCAVRLRM [P30],yeast two-hybrid growth on LTHA-deficient SD medium,[4],exhibited plaque growth
same,co-localization with scFv1 in cells,[5],co-localized with the antibody
same,"Co-IP with scFv1, His-tag system",[6],showed interactions with scFv1
same,"Co-IP with scFv1, GFP tag system",[6],able to bind to the antibody
RKGYQLASEIRGTIPLSSLYYYLCAVRLRM [S404Y],affinity to TiLV-specific positive serum,[3],did not show improved affinity compared to P30
same,immunogenicity (serum IgM antibody levels) after primary and booster immunization,[1],failed to show significantly improved immunogenicity
RKGYQLASEIRKTIPLSSLYYSLCAVRLRM [G394K],yeast two-hybrid growth on LTHA-deficient SD medium,[4],did not exhibit any growth
same,co-localization with scFv1 in cells,[5],failed to bind to the antibody
same,"Co-IP with scFv1, His-tag system",[6],did not
same,"Co-IP with scFv1, GFP tag system",[6],negative in the Co-IP reaction
B1,Kd,[7],573 nM
same,binding result,[8],binds
same,binding result,[9],binds
same,binding result,[10],binds
same,binding result,[11],binds
same,binding result,[12],binds
B2,binding result,[8],binds
same,binding result,[9],binds
same,binding result,[10],binds
same,binding result,[11],binds
same,binding result,[12],binds
